Measurements as given in US4897379A, “N-[N^α -(1(S)-carboxy-3-cyclohexylpropyl)-L-lysyl]-N-cyclopentylglycine as antihypertensives” (Asahi Breweries Ltd., priority 1987, dated 1990).

What was measured:
[1] = molecular target: T1, rabbit lung ACE (Oryctolagus cuniculus, UniProt P12822); assay: Inhibition of rabbit lung ACE by the method of Friedland and Silverstein; assay type: biochemical; conditions: for IC50: rabbit lung ACE, method of Friedland and Silverstein, read-out: IC50 (M) = Concentration inhibiting 50% of the activity of rabbit lung ACE
T1 construct: from tissue; host or cells: rabbit lung
T1 sequence (P12822 34-1310): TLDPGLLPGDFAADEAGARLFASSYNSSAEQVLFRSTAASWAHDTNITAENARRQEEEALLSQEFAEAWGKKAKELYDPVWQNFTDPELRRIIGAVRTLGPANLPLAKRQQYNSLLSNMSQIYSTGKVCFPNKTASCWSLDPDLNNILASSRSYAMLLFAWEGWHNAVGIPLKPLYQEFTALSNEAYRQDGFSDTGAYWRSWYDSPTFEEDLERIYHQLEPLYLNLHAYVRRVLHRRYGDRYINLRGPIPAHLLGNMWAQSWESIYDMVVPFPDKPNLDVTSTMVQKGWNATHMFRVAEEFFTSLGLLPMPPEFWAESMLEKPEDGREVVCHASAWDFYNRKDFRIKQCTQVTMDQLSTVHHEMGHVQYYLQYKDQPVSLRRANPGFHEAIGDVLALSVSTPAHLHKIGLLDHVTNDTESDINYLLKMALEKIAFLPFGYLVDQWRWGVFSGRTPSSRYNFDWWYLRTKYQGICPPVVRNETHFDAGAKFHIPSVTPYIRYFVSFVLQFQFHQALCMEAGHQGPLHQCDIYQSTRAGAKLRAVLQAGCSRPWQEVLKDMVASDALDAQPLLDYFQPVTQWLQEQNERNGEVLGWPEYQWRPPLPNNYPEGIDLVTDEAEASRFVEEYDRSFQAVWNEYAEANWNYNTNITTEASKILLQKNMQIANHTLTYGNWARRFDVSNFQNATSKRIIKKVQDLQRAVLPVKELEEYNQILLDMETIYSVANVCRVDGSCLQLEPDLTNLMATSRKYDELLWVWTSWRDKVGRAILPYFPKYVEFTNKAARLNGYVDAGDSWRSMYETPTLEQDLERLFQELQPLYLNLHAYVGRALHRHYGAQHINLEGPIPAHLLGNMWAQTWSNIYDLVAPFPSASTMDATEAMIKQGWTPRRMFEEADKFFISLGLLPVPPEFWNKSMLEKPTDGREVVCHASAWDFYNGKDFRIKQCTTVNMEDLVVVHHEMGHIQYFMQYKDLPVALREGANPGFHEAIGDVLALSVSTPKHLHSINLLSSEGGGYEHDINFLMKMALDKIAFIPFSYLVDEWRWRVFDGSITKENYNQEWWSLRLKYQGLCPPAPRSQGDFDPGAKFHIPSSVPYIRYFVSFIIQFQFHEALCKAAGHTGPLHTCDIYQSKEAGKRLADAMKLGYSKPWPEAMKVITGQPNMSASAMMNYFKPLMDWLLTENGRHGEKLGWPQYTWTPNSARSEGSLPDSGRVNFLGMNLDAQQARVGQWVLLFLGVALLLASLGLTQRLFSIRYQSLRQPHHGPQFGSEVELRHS
Description: IC50 (M) = Concentration inhibiting 50% of the activity of rabbit
lung ACE was determined by the method of Friedland and Silverstein.

[2] = system: angiotensin converting enzyme; conditions: Nature 288, 280 (1980); Chem. Pharm. Bull. 34, 1128 (1986); cited from earlier work

| strength of activity relative to Lisinopril ([1]; ACE inhibition, compared with Lisinopril) | IC50 [1] | SMILES | order of strength of activity [2] |
| --- | --- | --- | --- |
| more than 10 times | 1e-10 M | NCCCC[C@H](N[C@@H](CCC1CCCCC1)C(=O)O)C(=O)N(CC(=O)O)C1CCCC1 [N-[N^α -(1(S)-carboxy-3-cyclohexylpropyl)-L-lysyl]-N-cyclopentylglycine] | – |
| – | – | CCOC(=O)[C@H](CCc1ccccc1)N[C@@H](C)C(=O)N(CC(=O)O)C1Cc2ccccc2C1 [CV-3317] | Lisinopril>Enalapril>CV-3317 |
| – | – | CCOC(=O)[C@H](CCc1ccccc1)N[C@@H](C)C(=O)N1CCC[C@H]1C(=O)O [Enalapril] | Lisinopril>Enalapril>CV-3317 |
| – | 1.1e-09 M | NCCCC[C@H](N[C@@H](CCc1ccccc1)C(=O)O)C(=O)N1CCC[C@H]1C(=O)O [Lisinopril] | Lisinopril>Enalapril>CV-3317 |
